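Briefly, cells in 96-well plates were exposed to five compound concentrations for 48 h, and endpoints were estimated by linear interpolation. TGI: concentration producing complete growth inhibition.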
Legend:
Test in all cases: growth of human tumour cells (NCI), 48 h
RXF 393 renal = system: RXF 393 renal
OVCAR-3 ovarian = system: OVCAR-3 ovarian
NCI/ADR-RES ovarian = system: NCI/ADR-RES ovarian
UO-31 renal = system: UO-31 renal
HS 578T breast = system: HS 578T breast
MALME-3M melanoma = system: MALME-3M melanoma
NCI-H23 lung = system: NCI-H23 lung
CCRF-CEM leukemia = system: CCRF-CEM leukemia
MDA-MB-231 breast = system: MDA-MB-231 breast
PC-3 prostate = system: PC-3 prostate
HOP-62 NSCLC = system: HOP-62 NSCLC
T-47D breast = system: T-47D breast
HCT-116 colon = system: HCT-116 colon
OVCAR-4 ovarian = system: OVCAR-4 ovarian
U251 CNS = system: U251 CNS
COLO 205 colon = system: COLO 205 colon
SF-295 CNS = system: SF-295 CNS
M14 melanoma = system: M14 melanoma
HOP-92 NSCLC = system: HOP-92 NSCLC
DU-145 prostate = system: DU-145 prostate
LOX IMVI melanoma = system: LOX IMVI melanoma
SK-MEL-28 melanoma = system: SK-MEL-28 melanoma
SR leukemia = system: SR leukemia
MOLT-4 leukemia = system: MOLT-4 leukemia
TK-10 renal = system: TK-10 renal
SNB-19 CNS = system: SNB-19 CNS
MDA-MB-435 = system: MDA-MB-435
MCF7 breast = system: MCF7 breast
NCI-H226 lung = system: NCI-H226 lung
CAKI-1 renal = system: CAKI-1 renal
NCI-H460 lung = system: NCI-H460 lung
RPMI-8226 leukemia = system: RPMI-8226 leukemia
A498 renal = system: A498 renal
SNB-75 CNS = system: SNB-75 CNS
OVCAR-5 ovarian = system: OVCAR-5 ovarian
BT-549 breast = system: BT-549 breast
SK-OV-3 ovarian = system: SK-OV-3 ovarian
K-562 leukemia = system: K-562 leukemia
MDA-N = system: MDA-N
SF-268 CNS = system: SF-268 CNS
HCT-15 colon = system: HCT-15 colon
SF-539 CNS = system: SF-539 CNS
786-0 renal = system: 786-0 renal
IGROV1 ovarian = system: IGROV1 ovarian
SW-620 colon = system: SW-620 colon
SN12C renal = system: SN12C renal
KM12 colon = system: KM12 colon
HL-60(TB) leukemia = system: HL-60(TB) leukemia
A549 NSCLC = system: A549 NSCLC
EKVX NSCLC = system: EKVX NSCLC
UACC-257 melanoma = system: UACC-257 melanoma
HT29 colon = system: HT29 colon
OVCAR-8 ovarian = system: OVCAR-8 ovarian
UACC-62 melanoma = system: UACC-62 melanoma
NCI-H522 lung = system: NCI-H522 lung
SK-MEL-2 melanoma = system: SK-MEL-2 melanoma
SK-MEL-5 melanoma = system: SK-MEL-5 melanoma
ACHN renal = system: ACHN renal
HCC-2998 colon = system: HCC-2998 colon

Measured: TGI

CC(C)N(c1cc2c(cc1F)c(=O)c(C(=O)O)cn2-c1ccc(N2CCN(C)CC2)cn1)C(C)C
not listed: UACC-62 melanoma | NCI-H522 lung | SK-MEL-2 melanoma | SK-MEL-5 melanoma | ACHN renal | HCC-2998 colon
> 100 µM: all other assays above

COC1/C=C\OC2(C)Oc3c(C)c(O)c4c(O)c(c(CN(C)C)c(O)c4c3C2=O)NC(=O)/C(C)=C\C=C/C(C)C(O)C(C)C(O)C(C)C(OC(C)=O)C1C (stereo unspecified)
32.1 µM: NCI-H522 lung
54.4 µM: HT29 colon
34.8 µM: MCF7 breast
36.8 µM: SK-MEL-5 melanoma
75.6 µM: SW-620 colon
85.2 µM: K-562 leukemia
35.4 µM: COLO 205 colon
99.6 µM: KM12 colon
42.1 µM: M14 melanoma
42.6 µM: U251 CNS
40 µM: RPMI-8226 leukemia
31.3 µM: NCI-H23 lung
45.5 µM: SF-539 CNS
41.2 µM: UACC-62 melanoma
60.9 µM: UACC-257 melanoma
35 µM: LOX IMVI melanoma
43.1 µM: SR leukemia
55.8 µM: HCC-2998 colon
50.8 µM: HL-60(TB) leukemia
42.5 µM: SK-MEL-2 melanoma
92.8 µM: MDA-MB-231 breast
83.8 µM: SN12C renal
97.5 µM: SK-MEL-28 melanoma
39.3 µM: MALME-3M melanoma
78.6 µM: MDA-MB-435
61.4 µM: EKVX NSCLC
37.9 µM: HCT-116 colon
72 µM: PC-3 prostate
38.9 µM: MOLT-4 leukemia
not listed: CCRF-CEM leukemia
> 100 µM: all other assays above

COc1ccc(CCN(C)C(=O)CC(C#N)(c2ccccc2)c2ccc(OC)c(OC)c2)cc1OC (stereo unspecified)
> 76 µM: HOP-92 NSCLC
99.3 µM: SR leukemia
not listed: HCC-2998 colon
> 100 µM: all other assays above

COc1ccccc1CNCc1nc2ccccc2[nH]1
not listed: MALME-3M melanoma | SK-OV-3 ovarian
> 100 µM: all other assays above

— PubChem BioAssay (NCI)
